Where two headings read alike, the source gives them in different places. *1 amine or outer side, *2 acyl side, *3 side chain or, on linkers, in order; H or OH if unused. Where a SMILES comes first, the peptide text is derived from it. Bridges are numbered along the chain shown (N, C = ends). [ ]: non-standard residue; d: D form. The star is where a group is joined. Acetyl(4-DOTA-piperazinyl) = O=C(O)CN1CCN(CC(=O)O)CCN(CC(=O)N2CCN(CC(=O)*)CC2)CCN(CC(=O)O)CC1; Pro(cis-4-F) = O=C(O)[C@@H]1C[C@H](F)CN1; Cyclopentanecarbonyl = O=C(C1CCCC1)*; Ser(ΨH,HPro) = O=C(O)[C@@H]1COCN1; Hyp = O=C(O)[C@@H]1C[C@@H](O)CN1; Pentanoyl(4-Me) = CC(C)CCC(=O)*; Cit = NC(=O)NCCC[C@H](N)C(=O)O; NMeL = CN[C@@H](CC(C)C)C(=O)O; Butoxycarbonyl = CCCCOC(=O)*; X9 = OC[C@H](CS[*:1])N[*:2]; Nle = CCCC[C@H](N)C(=O)O; Aze = O=C(O)[C@@H]1CCN1; Nva = CCC[C@H](N)C(=O)O; Pentanoyl = CCCCC(=O)*
How the values were obtained:
[1] = biological target: T1, uPAR-expressing HEC-265 human endometrial adenocarcinoma cells (Homo sapiens, UniProt Q03405); assay: Competitive FACS binding assay; details: pIC50 category of FACS binding
T1 construct: Cell surface uPAR-expressing HEC-265 human endometrial adenocarcinoma cells; host or cells: HEC-265
T1 sequence (Q03405 23-335): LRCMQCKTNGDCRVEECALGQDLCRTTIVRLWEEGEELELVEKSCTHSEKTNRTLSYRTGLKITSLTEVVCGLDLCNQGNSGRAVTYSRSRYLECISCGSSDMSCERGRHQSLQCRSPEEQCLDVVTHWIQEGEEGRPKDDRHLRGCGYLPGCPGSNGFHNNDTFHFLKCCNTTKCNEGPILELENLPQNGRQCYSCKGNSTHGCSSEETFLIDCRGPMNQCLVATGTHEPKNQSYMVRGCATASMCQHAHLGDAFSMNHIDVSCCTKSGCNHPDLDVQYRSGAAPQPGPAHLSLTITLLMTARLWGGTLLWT
In short: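 HEC-265 cells incubated 1 h at 4 °C with 10 nM biotinylated uPAR peptide tracer plus increasing test compound, then stained with APC-streptavidin on ice. Median APC fluorescence by flow cytometry; 4PL fit gives pIC50.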

human uPAR (uPAR-Fc) = biological target: T2, human uPAR (uPAR-Fc) (Homo sapiens, UniProt Q03405); assay: Surface plasmon resonance (SPR) assay, single cycle kinetics; type: binding; details: pKD category for uPAR SPR activity assay, uPAR-Fc on Protein A-Chip, 25°C; for Kd: read-out: pKD CAT (converted)
T2 construct: comprising amino acids Leu23-Arg303 according to UniProt entry Q03405.1; purchased R&D Systems 10378-UK-100
T2 sequence (Q03405 23-303): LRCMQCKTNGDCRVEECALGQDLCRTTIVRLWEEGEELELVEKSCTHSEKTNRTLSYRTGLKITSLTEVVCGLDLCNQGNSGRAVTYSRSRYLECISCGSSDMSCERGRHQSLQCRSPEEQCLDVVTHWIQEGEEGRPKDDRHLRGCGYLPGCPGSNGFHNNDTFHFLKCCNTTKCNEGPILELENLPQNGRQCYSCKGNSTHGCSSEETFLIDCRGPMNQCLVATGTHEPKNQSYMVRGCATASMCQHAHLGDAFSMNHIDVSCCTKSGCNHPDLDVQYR
In short: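 uPAR-Fc (Leu23-Arg303 extracellular domains, human IgG1 Fc) captured on Protein A chip to ~2000 RU; single-cycle kinetics at 25°C in HEPES running buffer pH 7.4 with 0.1% DMSO. KD from double-referenced sensorgrams fitted to 1:1 Langmuir model, reported as pKD.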

Compound	IC50 [1]	Kd (human uPAR (uPAR-Fc); single cycle kinetics)	Kd (human uPAR (uPAR-Fc))	pIC50 CAT [1]	pKD CAT (human uPAR (uPAR-Fc))
CCCCOC(=O)N[C@H]1CSSC[C@@H](C(N)=O)NC(=O)[C@H](CCC)NC(=O)[C@H]([C@@H](C)CC)NC(=O)[C@@H]2C[C@@H](O)CN2C(=O)[C@@H]2C[C@H](F)CN2C(=O)[C@H](Cc2ccccc2)NC(=O)[C@H](Cc2ccc(O)cc2)NC(=O)[C@H](CCCCNC(=O)CN2CCN(C(=O)CN3CCN(CC(=O)O)CCN(CC(=O)O)CCN(CC(=O)O)CC3)CC2)NC(=O)[C@H]([C@@H](C)O)NC1=O [UPAR-181, Butoc-[Cys-Thr-Lys(DOTA-PPAc)-Tyr-Phe-4Cfp-Hyp-Ile-Nva-Cys]-NH2] (Butoxycarbonyl-CTK(Acetyl(4-DOTA-piperazinyl))YF[Pro(cis-4-F)][Hyp]I[Nva]C-NH2; disulfide 1-10)	≤ 10 nM	–	< 1.58 nM	–	–
Pent-[Cys-Cit-Lys(LuDOTA)-Tyr-Egm-Pro-Hyp-Ile-Nva-Cys]-NH2 [UPAR-254]	–	–	–	A (pIC50 values ≥8.0)	A (pKD values ≥ 8.8)
CCC[C@@H]1NC(=O)[C@H]([C@@H](C)CC)NC(=O)[C@@H]2C[C@@H](O)CN2C(=O)[C@@H]2CCCN2C(=O)[C@H](Cc2ccccc2)NC(=O)[C@H](Cc2ccc(O)cc2)NC(=O)[C@H](CCC(N)=O)NC(=O)[C@H](CCCNC(=N)N)NC(=O)[C@@H](NC(=O)[C@H](CC(C)C)N(C)C(C)=O)CSSC[C@@H](C(N)=O)NC1=O [UPAR-483, Ac-Nml-[Cys-Arg-Gln-Tyr-Phe-Pro-Hyp-Ile-Nva-Cys]-NH2] (Ac-[NMeL]CRQYFP[Hyp]I[Nva]C-NH2; disulfide 2-11)	≤ 10 nM	< 1.58 nM	–	–	–
CCCC[C@@H]1NC(=O)[C@H](CCC(=O)O)NC(=O)[C@@H](NC(=O)[C@H](CC(C)C)NC(=O)[C@H](CC(=O)O)NC(C)=O)CSSC[C@@H](C(N)=O)NC(=O)[C@H](CC(C)C)NC(=O)[C@H]([C@@H](C)CC)NC(=O)[C@H](C)NC(=O)[C@@H]2CCCN2C(=O)[C@H](Cc2ccccc2)NC(=O)[C@H](Cc2ccc(O)cc2)NC1=O [UPAR-239, Ac-Asp-Leu-[Cys-Glu-Nle-Tyr-Phe-Pro-Ala-Ile-Leu-Cys]-NH2] (Ac-DLCE[Nle]YFPAILC-NH2; disulfide 3-12)	≤ 10 nM	–	< 1.58 nM	–	–

Now from value to compound:

IC50 [1]	Kd (human uPAR (uPAR-Fc); single cycle kinetics)	Kd (human uPAR (uPAR-Fc))	pIC50 CAT [1]	pKD CAT (human uPAR (uPAR-Fc))	Compound
≤ 10 nM	1.58 to 10 nM	–	–	–	CC[C@H](C)[C@@H]1NC(=O)[C@@H](C)NC(=O)[C@@H]2CCN2C(=O)[C@H](Cc2ccccc2)NC(=O)[C@H](Cc2ccc(O)cc2)NC(=O)[C@H](CCC(N)=O)NC(=O)[C@H](CCCNC(N)=O)NC(=O)[C@@H](NC(=O)CCC(C)C)CSSC[C@@H](C(N)=O)NC(=O)[C@H](CC(C)C)NC1=O [UPAR-426, iHex-[Cys-Cit-Gln-Tyr-Phe-Aze-ala-Ile-Leu-Cys]-NH2] ({Pentanoyl(4-Me)}-C[Cit]QYF[Aze][dA]ILC-NH2; disulfide 1-10)
≤ 10 nM	–	1.58 to 10 nM	–	–	CC[C@H](C)[C@@H]1NC(=O)[C@@H](C)NC(=O)[C@@H]2COCN2C(=O)[C@H](Cc2ccccc2)NC(=O)[C@H](Cc2ccc(O)cc2)NC(=O)[C@H](CCC(N)=O)NC(=O)[C@H](CCCNC(N)=O)NC(=O)[C@@H](NC(=O)CCC(C)C)CSSC[C@@H](C(N)=O)NC(=O)[C@H](CC(C)C)NC1=O [UPAR-321, iHex-[Cys-Cit-Gln-Tyr-Phe-Oxa-ala-Ile-Leu-Cys]-NH2] ({Pentanoyl(4-Me)}-C[Cit]QYF[Ser(ΨH,HPro)][dA]ILC-NH2; disulfide 1-10)
≤ 10 nM	–	< 1.58 nM	–	–	CC[C@H](C)[C@@H]1NC(=O)[C@@H](C)NC(=O)[C@@H]2CCCN2C(=O)[C@H](Cc2ccccc2)NC(=O)[C@H](Cc2ccc(O)cc2)NC(=O)[C@H](CCC(N)=O)NC(=O)[C@H](CCCNC(N)=O)NC(=O)[C@@H](NC(=O)C2CCCC2)CSSC[C@@H](C(N)=O)NC(=O)[C@H](CC(C)C)NC1=O [UPAR-208, Cp-[Cys-Cit-Gln-Tyr-Phe-Pro-ala-Ile-Leu-Cys]-NH2] (Cyclopentanecarbonyl-C[Cit]QYFP[dA]ILC-NH2; disulfide 1-10)
≤ 10 nM	–	< 1.58 nM	–	–	CCCCC(=O)N[C@H]1CSSC[C@@H](CO)NC(=O)[C@H](CCC)NC(=O)[C@H]([C@@H](C)CC)NC(=O)[C@@H]2C[C@@H](O)CN2C(=O)[C@@H]2CCCN2C(=O)[C@H](Cc2ccccc2)NC(=O)[C@H](Cc2ccc(O)cc2)NC(=O)[C@H](CCC(N)=O)NC(=O)[C@H](CCCNC(N)=O)NC1=O [UPAR-292, Pent-[Cys-Cit-Gln-Tyr-Phe-Pro-Hyp-Ile-Nva-Cysol]-OH] (Pentanoyl-C[Cit]QYFP[Hyp]I[Nva]; linker 1-C via X9)

— patent EP4610269A1, “UROKINASE PLASMINOGEN ACTIVATOR SURFACE RECEPTOR (UPAR) LIGANDS FOR DIAGNOSTIC OR THERAPEUTIC USE” (3B Pharmaceuticals GmbH, priority 2024, dated 2025)
